From the kinase profiling compilation of Christmann-Franck et al. (2016)

What was measured:
Test in all cases: KINOMEscan competition binding
Settings in all cases: compound 10.0 µM
CDK9 (human) = CDK9 (human) (UniProt P50750)
PRKD3 (human) = PRKD3 (human) (UniProt O94806)
BMPR1B (human) = BMPR1B (human) (UniProt O00238)
FLT4 (human) = FLT4 (human) (UniProt P35916)
CDK5 (human) = CDK5 (human) (UniProt Q00535)
LIMK2 (human) = LIMK2 (human) (UniProt P53671)
[1] = tested on: EGFR (human), P00533 [747-751 del / S ins]
PI4KB (human) = PI4KB (human) (UniProt Q9UBF8)
PAK7 (human) = PAK7 (human) (UniProt Q9P286)
MAP4K4 (human) = MAP4K4 (human) (UniProt O95819)
FES (human) = FES (human) (UniProt P07332)
MAP4K3 (human) = MAP4K3 (human) (UniProt Q8IVH8)
SIK3 (human) = SIK3 (human) (UniProt Q9Y2K2)
[2] = tested on: KIT (human), P10721 [V559D]
TNIK (human) = TNIK (human) (UniProt Q9UKE5)
PIM1 (human) = PIM1 (human) (UniProt P11309)
DAPK3 (human) = DAPK3 (human) (UniProt O43293)
STK32A (human) = STK32A (human) (UniProt Q8WU08)
[3] = tested on: EIF2AK4 KD2 (human), Q9P2K8 [S808G]
PTK2 (human) = PTK2 (human) (UniProt Q05397)
NEK9 (human) = NEK9 (human) (UniProt Q8TD19)
NUAK1 (human) = NUAK1 (human) (UniProt O60285)
BMP2K (human) = BMP2K (human) (UniProt Q9NSY1)
CDC2L2 (human) = CDC2L2 (human) (UniProt Q9UQ88)
MLTK (human) = MLTK (human) (UniProt Q9NYL2)
[4] = tested on: ABL1 (human), P00519 [M351T]
PKN2 (human) = PKN2 (human) (UniProt Q16513)
AKT1 (human) = AKT1 (human) (UniProt P31749)
LTK (human) = LTK (human) (UniProt P29376)
CDC42BPG (human) = CDC42BPG (human) (UniProt Q6DT37)
MARK3 (human) = MARK3 (human) (UniProt P27448)
RIOK2 (human) = RIOK2 (human) (UniProt Q9BVS4)
PIK3CD (human) = PIK3CD (human) (UniProt O00329)
ZAP70 (human) = ZAP70 (human) (UniProt P43403)
MAP3K10 (human) = MAP3K10 (human) (UniProt Q02779)
EPHA7 (human) = EPHA7 (human) (UniProt Q15375)
STK25 (human) = STK25 (human) (UniProt O00506)
PIK3C2B (human) = PIK3C2B (human) (UniProt O00750)
AURKC (human) = AURKC (human) (UniProt Q9UQB9)
FYN (human) = FYN (human) (UniProt P06241)
SIK1 (human) = SIK1 (human) (UniProt P57059)

MARK3 (human), sequence (P27448 whole entry, looked up): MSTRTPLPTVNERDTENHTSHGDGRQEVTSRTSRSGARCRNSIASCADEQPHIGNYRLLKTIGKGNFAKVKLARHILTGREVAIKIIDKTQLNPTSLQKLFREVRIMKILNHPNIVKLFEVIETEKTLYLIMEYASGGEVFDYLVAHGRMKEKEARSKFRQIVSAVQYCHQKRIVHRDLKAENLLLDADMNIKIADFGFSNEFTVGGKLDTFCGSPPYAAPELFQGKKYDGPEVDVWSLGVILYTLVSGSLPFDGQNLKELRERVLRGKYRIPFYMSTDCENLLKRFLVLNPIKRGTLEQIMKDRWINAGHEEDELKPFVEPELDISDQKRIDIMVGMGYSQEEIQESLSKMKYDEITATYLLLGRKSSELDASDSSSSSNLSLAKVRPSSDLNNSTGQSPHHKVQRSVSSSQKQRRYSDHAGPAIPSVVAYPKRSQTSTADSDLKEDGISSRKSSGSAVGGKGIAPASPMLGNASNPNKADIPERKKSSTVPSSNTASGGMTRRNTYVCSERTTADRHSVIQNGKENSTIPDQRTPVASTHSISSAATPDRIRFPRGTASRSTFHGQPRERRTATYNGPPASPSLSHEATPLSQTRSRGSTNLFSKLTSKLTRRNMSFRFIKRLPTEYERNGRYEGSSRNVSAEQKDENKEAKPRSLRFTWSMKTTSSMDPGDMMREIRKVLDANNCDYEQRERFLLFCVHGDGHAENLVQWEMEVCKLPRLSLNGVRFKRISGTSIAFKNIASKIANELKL
NEK9 (human), sequence (Q8TD19 whole entry, looked up): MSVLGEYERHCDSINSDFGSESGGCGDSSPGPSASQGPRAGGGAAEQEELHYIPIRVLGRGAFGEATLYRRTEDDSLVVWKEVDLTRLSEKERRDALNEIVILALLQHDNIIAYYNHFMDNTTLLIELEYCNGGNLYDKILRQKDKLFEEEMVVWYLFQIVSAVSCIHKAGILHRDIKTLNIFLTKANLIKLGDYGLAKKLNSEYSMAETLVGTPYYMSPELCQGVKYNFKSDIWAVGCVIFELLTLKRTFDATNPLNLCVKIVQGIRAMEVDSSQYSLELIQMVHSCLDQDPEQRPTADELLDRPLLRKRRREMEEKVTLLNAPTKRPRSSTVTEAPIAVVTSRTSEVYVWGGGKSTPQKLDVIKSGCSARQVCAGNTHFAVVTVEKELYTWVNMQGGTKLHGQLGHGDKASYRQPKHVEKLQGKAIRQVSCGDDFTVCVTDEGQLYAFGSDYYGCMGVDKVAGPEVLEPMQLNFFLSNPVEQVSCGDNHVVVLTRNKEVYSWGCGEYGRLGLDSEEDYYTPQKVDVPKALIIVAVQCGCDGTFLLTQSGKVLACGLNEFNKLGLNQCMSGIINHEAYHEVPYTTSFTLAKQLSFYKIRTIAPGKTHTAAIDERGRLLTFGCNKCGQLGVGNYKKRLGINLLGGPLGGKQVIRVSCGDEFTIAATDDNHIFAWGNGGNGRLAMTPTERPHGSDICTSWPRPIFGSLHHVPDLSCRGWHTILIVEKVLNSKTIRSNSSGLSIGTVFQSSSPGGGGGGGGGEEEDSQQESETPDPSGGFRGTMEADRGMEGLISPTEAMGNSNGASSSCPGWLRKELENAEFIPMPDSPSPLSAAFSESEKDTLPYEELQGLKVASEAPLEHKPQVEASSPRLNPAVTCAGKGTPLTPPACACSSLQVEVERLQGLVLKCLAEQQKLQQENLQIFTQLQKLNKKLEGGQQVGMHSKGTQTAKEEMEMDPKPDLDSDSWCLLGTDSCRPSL
DAPK3 (human), sequence (O43293 whole entry, looked up): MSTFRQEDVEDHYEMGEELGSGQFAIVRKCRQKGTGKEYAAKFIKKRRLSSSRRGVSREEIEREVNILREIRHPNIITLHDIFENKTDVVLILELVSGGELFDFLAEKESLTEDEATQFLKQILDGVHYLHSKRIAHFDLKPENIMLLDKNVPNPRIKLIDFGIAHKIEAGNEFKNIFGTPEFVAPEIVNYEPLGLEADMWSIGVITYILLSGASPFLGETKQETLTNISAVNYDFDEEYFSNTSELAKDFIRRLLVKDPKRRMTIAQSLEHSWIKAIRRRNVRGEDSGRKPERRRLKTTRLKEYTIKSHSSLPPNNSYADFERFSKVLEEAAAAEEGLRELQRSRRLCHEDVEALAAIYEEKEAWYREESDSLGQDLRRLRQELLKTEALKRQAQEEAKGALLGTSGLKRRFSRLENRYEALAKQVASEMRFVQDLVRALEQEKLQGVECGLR
RIOK2 (human), sequence (Q9BVS4 whole entry, looked up): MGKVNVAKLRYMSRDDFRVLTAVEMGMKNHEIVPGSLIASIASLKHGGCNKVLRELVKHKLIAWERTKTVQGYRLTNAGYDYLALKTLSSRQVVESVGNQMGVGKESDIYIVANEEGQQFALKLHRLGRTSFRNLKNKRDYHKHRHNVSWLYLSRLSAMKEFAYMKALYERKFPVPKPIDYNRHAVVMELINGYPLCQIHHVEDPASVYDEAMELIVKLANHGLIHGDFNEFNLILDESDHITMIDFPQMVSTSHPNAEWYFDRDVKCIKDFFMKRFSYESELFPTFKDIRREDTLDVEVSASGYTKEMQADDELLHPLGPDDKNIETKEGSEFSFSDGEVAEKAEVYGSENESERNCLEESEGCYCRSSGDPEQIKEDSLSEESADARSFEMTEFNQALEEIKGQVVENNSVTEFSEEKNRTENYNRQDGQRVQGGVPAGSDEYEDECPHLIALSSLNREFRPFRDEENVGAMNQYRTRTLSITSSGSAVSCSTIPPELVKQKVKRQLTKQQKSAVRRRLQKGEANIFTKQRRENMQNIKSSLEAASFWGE
BMPR1B (human), sequence (O00238 whole entry, looked up): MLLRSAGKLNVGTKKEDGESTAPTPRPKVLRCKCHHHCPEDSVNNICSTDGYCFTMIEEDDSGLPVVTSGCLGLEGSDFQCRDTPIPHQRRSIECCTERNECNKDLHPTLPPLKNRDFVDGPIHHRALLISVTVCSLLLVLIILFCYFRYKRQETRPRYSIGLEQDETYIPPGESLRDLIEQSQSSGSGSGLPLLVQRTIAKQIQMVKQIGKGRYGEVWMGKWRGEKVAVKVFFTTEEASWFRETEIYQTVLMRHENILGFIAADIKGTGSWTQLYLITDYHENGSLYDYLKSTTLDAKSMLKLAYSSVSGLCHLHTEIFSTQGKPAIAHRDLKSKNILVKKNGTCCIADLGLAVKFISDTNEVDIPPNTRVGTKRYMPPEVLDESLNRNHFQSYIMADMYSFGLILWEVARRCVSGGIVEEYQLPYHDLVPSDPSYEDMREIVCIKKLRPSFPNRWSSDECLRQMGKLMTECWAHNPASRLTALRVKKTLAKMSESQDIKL
LTK (human), sequence (P29376 whole entry, looked up): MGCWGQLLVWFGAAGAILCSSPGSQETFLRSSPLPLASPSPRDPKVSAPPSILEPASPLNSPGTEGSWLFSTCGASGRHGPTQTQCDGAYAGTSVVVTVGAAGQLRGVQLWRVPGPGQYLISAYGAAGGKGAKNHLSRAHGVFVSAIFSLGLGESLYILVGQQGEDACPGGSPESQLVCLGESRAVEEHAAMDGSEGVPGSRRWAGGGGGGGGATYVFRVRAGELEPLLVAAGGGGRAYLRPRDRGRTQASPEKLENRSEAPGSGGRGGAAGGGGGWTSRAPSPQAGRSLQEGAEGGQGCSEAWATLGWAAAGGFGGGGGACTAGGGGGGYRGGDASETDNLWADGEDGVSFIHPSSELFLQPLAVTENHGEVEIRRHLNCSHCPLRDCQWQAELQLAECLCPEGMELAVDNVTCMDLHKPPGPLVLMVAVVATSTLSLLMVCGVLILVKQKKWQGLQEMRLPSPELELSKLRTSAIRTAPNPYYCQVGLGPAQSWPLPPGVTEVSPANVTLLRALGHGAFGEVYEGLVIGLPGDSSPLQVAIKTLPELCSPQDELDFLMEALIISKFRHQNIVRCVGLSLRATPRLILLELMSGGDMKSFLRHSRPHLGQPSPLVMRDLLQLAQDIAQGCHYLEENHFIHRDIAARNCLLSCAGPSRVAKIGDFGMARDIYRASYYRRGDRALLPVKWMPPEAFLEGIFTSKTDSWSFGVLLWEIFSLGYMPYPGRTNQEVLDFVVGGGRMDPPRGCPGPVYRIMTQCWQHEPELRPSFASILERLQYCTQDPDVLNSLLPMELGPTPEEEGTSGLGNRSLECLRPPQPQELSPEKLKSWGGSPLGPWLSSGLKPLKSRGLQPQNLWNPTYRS
CDK5 (human), sequence (Q00535 whole entry, looked up): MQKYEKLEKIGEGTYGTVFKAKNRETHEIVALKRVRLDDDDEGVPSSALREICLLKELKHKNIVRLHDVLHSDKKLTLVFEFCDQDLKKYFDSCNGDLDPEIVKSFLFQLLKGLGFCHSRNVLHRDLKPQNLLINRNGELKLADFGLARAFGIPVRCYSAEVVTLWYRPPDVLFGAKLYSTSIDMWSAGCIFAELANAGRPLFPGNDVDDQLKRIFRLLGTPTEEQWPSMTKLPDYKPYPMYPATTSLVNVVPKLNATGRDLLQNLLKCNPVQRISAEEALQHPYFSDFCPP
STK25 (human), sequence (O00506 whole entry, looked up): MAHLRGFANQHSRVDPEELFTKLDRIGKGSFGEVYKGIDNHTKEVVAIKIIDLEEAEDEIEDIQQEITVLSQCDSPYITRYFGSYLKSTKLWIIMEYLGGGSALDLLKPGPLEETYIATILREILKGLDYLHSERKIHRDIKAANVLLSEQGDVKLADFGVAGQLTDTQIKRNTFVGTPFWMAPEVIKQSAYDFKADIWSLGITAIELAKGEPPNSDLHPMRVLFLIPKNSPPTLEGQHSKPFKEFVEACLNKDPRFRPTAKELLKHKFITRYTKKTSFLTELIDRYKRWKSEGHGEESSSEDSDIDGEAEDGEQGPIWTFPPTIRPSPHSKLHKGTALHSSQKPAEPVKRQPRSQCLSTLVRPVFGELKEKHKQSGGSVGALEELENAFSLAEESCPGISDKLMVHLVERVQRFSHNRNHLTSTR

CCC(=O)N1CCN(c2ccc(-n3c(=O)ccc4cnc5ccc(-c6cnc7ccccc7c6)cc5c43)cc2C(F)(F)F)CC1
per cent of control (CDK9 (human)): 94% | kinase still bound, per cent of control (PRKD3 (human)): 100% | kinase still bound, per cent of control (BMPR1B (human)): 100% | kinase still bound, per cent of control (FLT4 (human)): 74% | per cent of control (CDK5 (human)): 100% | kinase still bound, per cent of control (LIMK2 (human)): 4.8% | kinase still bound, per cent of control [1]: 80% | kinase still bound, per cent of control (PI4KB (human)): 96% | kinase still bound, per cent of control (PAK7 (human)): 87% | kinase still bound, per cent of control (MAP4K4 (human)): 5.2% | kinase still bound, per cent of control (FES (human)): 41% | kinase still bound, per cent of control (MAP4K3 (human)): 1.9% | kinase still bound, per cent of control (SIK3 (human)): 89% | kinase still bound, per cent of control [2]: 50% | kinase still bound, per cent of control (TNIK (human)): 39% | kinase still bound, per cent of control (PIM1 (human)): 80% | kinase still bound, per cent of control (DAPK3 (human)): 82% | kinase still bound, per cent of control (STK32A (human)): 100% | kinase still bound, per cent of control [3]: 99% | kinase still bound, per cent of control (PTK2 (human)): 14% | kinase still bound, per cent of control (NEK9 (human)): 100% | kinase still bound, per cent of control (NUAK1 (human)): 100% | kinase still bound, per cent of control (BMP2K (human)): 100% | per cent of control (CDC2L2 (human)): 100% | kinase still bound, per cent of control (MLTK (human)): 22% | kinase still bound, per cent of control [4]: 100% | kinase still bound, per cent of control (PKN2 (human)): 65% | kinase still bound, per cent of control (AKT1 (human)): 91% | kinase still bound, per cent of control (LTK (human)): 77% | kinase still bound, per cent of control (CDC42BPG (human)): 1.6% | kinase still bound, per cent of control (MARK3 (human)): 100% | kinase still bound, per cent of control (RIOK2 (human)): 24% | kinase still bound, per cent of control (PIK3CD (human)): 51% | kinase still bound, per cent of control (ZAP70 (human)): 100% | kinase still bound, per cent of control (MAP3K10 (human)): 99% | kinase still bound, per cent of control (EPHA7 (human)): 98% | kinase still bound, per cent of control (STK25 (human)): 84% | kinase still bound, per cent of control (PIK3C2B (human)): 25% | kinase still bound, per cent of control (AURKC (human)): 91% | kinase still bound, per cent of control (FYN (human)): 49% | kinase still bound, per cent of control (SIK1 (human)): 80%
